Our source for the IC50 values is patent US20250179061A1 (SIRONAX LTD., priority 2022, published 2025).

In this assay the test system is HT-29 cells. Briefly: HT-29 necroptosis cell viability assay (TNF-α/SMAC mimetic/zVAD-FMK, CellTiter-Glo). Format: cell-based. To be noted: Homo sapiens, HT-29, HT-29 necroptosis cell viability, IC50 class symbols; read-out: Activity. In outline: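 Necroptosis was triggered by TNF-α (10 ng/ml), SMAC mimetic (6 μM) and zVAD-FMK (10 μM) in serum-free medium during 20 h compound exposure (10 concentrations, threefold steps) of HT-29 cells. IC50 from duplicate dose-responses uses CellTiter-Glo ATP luminescence as viability read-out.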
A general note: In ATP-based viability assays light output follows the ATP content of the culture.

Where a name gives a salt, the structure may show the parent alone.

`N#C[C@@H]1CCN(c2cc(Oc3ccc(-n4ncn(Cc5c(F)cccc5F)c4=O)cc3)ccn2)C1` [Example 400, (R)-1-(4-(4-(4-(2,6-difluorobenzyl)-5-oxo-4,5-dihydro-1H-1,2,4-triazol-1-yl)phenoxy)pyridin-2-yl)pyrrolidine-3-carbonitrile]: the IC50 was under 100 nM. Next, `N#C[C@H]1CCN(c2cc(Oc3ccc(-n4ncn(Cc5c(F)cccc5F)c4=O)cc3)ccn2)C1` [Example 401, (S)-1-(4-(4-(4-(2,6-difluorobenzyl)-5-oxo-4,5-dihydro-1H-1,2,4-triazol-1-yl)phenoxy)pyridin-2-yl)pyrrolidine-3-carbonitrile]: under 100 nM. In the case of `N#Cc1cc(Oc2ccc(-n3ncn(Cc4c(F)cccc4F)c3=O)cc2F)c(F)cn1` [Example 402, 4-(4-(4-(2,6-difluorobenzyl)-5-oxo-4,5-dihydro-1H-1,2,4-triazol-1-yl)-2-fluorophenoxy)-5-fluoropicolinonitrile], the IC50 is under 100 nM. Next, `O=c1n(-c2ccc(Oc3ccncc3)cc2)nc(Cl)n1Cc1ccccc1` [Example 403, 4-benzyl-5-chloro-2-(4-(pyridin-4-yloxy)phenyl)-2,4-dihydro-3H-1,2,4-triazol-3-one]: 100 to 1000 nM; `N#Cc1ccccc1Oc1ccc(-n2ncn(Cc3c(F)cccc3F)c2=O)cc1` [Example 404, 2-(4-(4-(2,6-difluorobenzyl)-5-oxo-4,5-dihydro-1H-1,2,4-triazol-1-yl)phenoxy)benzonitrile]: 100 to 1000 nM; `N#Cc1cc(Oc2ccc(-n3ncn(Cc4c(F)cccc4F)c3=O)cc2)ccn1` [Example 405, 4-(4-(4-(2,6-difluorobenzyl)-5-oxo-4,5-dihydro-1H-1,2,4-triazol-1-yl)phenoxy)picolinonitrile]: 100 to 1000 nM.

As to `N#Cc1cc(Oc2ccc(-n3ncn(Cc4c(F)cccc4F)c3=O)cc2F)c(Cl)cn1` [Example 406, 5-chloro-4-(4-(4-(2,6-difluorobenzyl)-5-oxo-4,5-dihydro-1H-1,2,4-triazol-1-yl)-2-fluorophenoxy)picolinonitrile], the IC50 was under 100 nM. Next, `CN(CC1CCOCC1)c1cc(Oc2ccc(-n3ncn(Cc4c(F)cccc4F)c3=O)cc2)ccn1` [Example 407, 4-[(2,6-difluorophenyl)methyl]-2-[4-({2-[methyl(oxan-4-ylmethyl)amino]pyridin-4-yl}oxy)phenyl]-1,2,4-triazol-3-one]: 100 to 1000 nM.

With `CN(CC1CCCCO1)c1cc(Oc2ccc(-n3ncn(Cc4c(F)cccc4F)c3=O)cc2)ccn1` (centres unmarked) [Example 408, 4-(2,6-difluorobenzyl)-2-(4-((2-(methyl((tetrahydro-2H-pyran-2-yl)methyl)amino)pyridin-4-yl)oxy)phenyl)-2,4-dihydro-3H-1,2,4-triazol-3-one], the IC50 is under 100 nM. For `CCOC1CN(c2nccc(Oc3ccc(-n4ncn(Cc5c(F)cccc5F)c4=O)cc3)c2N)C1` [Example 409, 2-(4-((3-amino-2-(3-ethoxyazetidin-1-yl)pyridin-4-yl)oxy)phenyl)-4-(2,6-difluorobenzyl)-2,4-dihydro-3H-1,2,4-triazol-3-one] the value was 100 to 1000 nM; for `Nc1c(Oc2ccc(-n3ncn(Cc4c(F)cccc4F)c3=O)cc2)ccnc1N1CC2(CCOCC2)C1` [Example 410, 2-(4-((3-amino-2-(7-oxa-2-azaspiro[3.5]nonan-2-yl)pyridin-4-yl)oxy)phenyl)-4-(2,6-difluorobenzyl)-2,4-dihydro-3H-1,2,4-triazol-3-one], 100 to 1000 nM. For `O=c1n(Cc2c(F)cccc2F)cnn1-c1ccc(Oc2cc(N3CC4(CCN4)C3)ncc2Cl)c(F)c1` [Example 411, 2-(4-((5-chloro-2-(1,6-diazaspiro[3.3]heptan-6-yl)pyridin-4-yl)oxy)-3-fluorophenyl)-4-(2,6-difluorobenzyl)-2,4-dihydro-3H-1,2,4-triazol-3-one hydrochloride] the value was under 100 nM; for `O=c1n(Cc2c(F)cccc2F)cnn1-c1ccc(Oc2cc(N3CC4(CCCN4)C3)ncc2Cl)c(F)c1` [Example 412, 2-(4-((5-chloro-2-(2,5-diazaspiro[3.4]octan-2-yl)pyridin-4-yl)oxy)-3-fluorophenyl)-4-(2,6-difluorobenzyl)-2,4-dihydro-3H-1,2,4-triazol-3-one], 100 to 1000 nM. For `C[C@H]1C[C@@H](N)CN1c1cc(Oc2ccc(-n3ncn(Cc4c(F)cccc4F)c3=O)cc2F)c(Cl)cn1` [Example 413, 2-(4-((2-((2S,4R)-4-amino-2-methylpyrrolidin-1-yl)-5-chloropyridin-4-yl)oxy)-3-fluorophenyl)-4-(2,6-difluorobenzyl)-2,4-dihydro-3H-1,2,4-triazol-3-one] the value was under 100 nM; for `CNC1(C)CN(c2cc(Oc3ccc(-n4ncn(Cc5c(F)cccc5F)c4=O)cc3F)c(Cl)cn2)C1` [Example 414, 2-(4-((5-chloro-2-(3-methyl-3-(methylamino)azetidin-1-yl)pyridin-4-yl)oxy)-3-fluorophenyl)-4-(2,6-difluorobenzyl)-2,4-dihydro-3H-1,2,4-triazol-3-one], over 10000 nM.

As for `C[C@H]1[C@@H](N)CN1c1cc(Oc2ccc(-n3ncn(Cc4c(F)cccc4F)c3=O)cc2F)c(F)cn1` [Example 415, 2-(4-((2-((2S,3S)-3-amino-2-methylazetidin-1-yl)-5-fluoropyridin-4-yl)oxy)-3-fluorophenyl)-4-(2,6-difluorobenzyl)-2,4-dihydro-3H-1,2,4-triazol-3-one], the IC50 was under 100 nM.

As to `CC1(N)CN(c2nccc(Oc3ccc(-n4ncn(Cc5c(F)cccc5F)c4=O)cc3F)c2F)C1` [Example 416, 2-(4-((2-(3-amino-3-methylazetidin-1-yl)-3-fluoropyridin-4-yl)oxy)-3-fluorophenyl)-4-(2,6-difluorobenzyl)-2,4-dihydro-3H-1,2,4-triazol-3-one], the IC50 is under 100 nM.

On to `Cc1c(Oc2ccc(-n3ncn(Cc4c(F)cccc4F)c3=O)cc2F)ccnc1N1CC(C)(N)C1` [Example 417, 2-(4-((2-(3-amino-3-methylazetidin-1-yl)-3-methylpyridin-4-yl)oxy)-3-fluorophenyl)-4-(2,6-difluorobenzyl)-2,4-dihydro-3H-1,2,4-triazol-3-one], for which the IC50 was under 100 nM. For `O=c1n(Cc2c(F)cccc2F)cnn1-c1ccc(Oc2cc(N3CC4(CNC4)C3)ncc2F)c(F)c1` [Example 418, 4-(2,6-difluorobenzyl)-2-(3-fluoro-4-((5-fluoro-2-(2,6-diazaspiro[3.3]heptan-2-yl)pyridin-4-yl)oxy)phenyl)-2,4-dihydro-3H-1,2,4-triazol-3-one] the value was under 100 nM; for `CCNC1(C)CN(c2cc(Oc3ccc(-n4ncn(Cc5c(F)cccc5F)c4=O)cc3F)c(F)cn2)C1` [Example 419, 4-(2,6-difluorobenzyl)-2-(4-((2-(3-(ethylamino)-3-methylazetidin-1-yl)-5-fluoropyridin-4-yl)oxy)-3-fluorophenyl)-2,4-dihydro-3H-1,2,4-triazol-3-one], 100 to 1000 nM. As to `CC1(N)CN(c2nccc(Oc3ccc(-n4ncn(Cc5c(F)cccc5F)c4=O)cc3F)c2Cl)C1` [Example 420, 2-(4-((2-(3-amino-3-methylazetidin-1-yl)-3-chloropyridin-4-yl)oxy)-3-fluorophenyl)-4-(2,6-difluorobenzyl)-2,4-dihydro-3H-1,2,4-triazol-3-one], the IC50 is under 100 nM.

`CC1(N)CN(c2cc(Oc3ccc(-n4ncn(Cc5c(F)cccc5F)c4=O)cc3F)c(Cl)cn2)C1` [Example 421, 2-(4-((2-(3-amino-3-methylazetidin-1-yl)-5-chloropyridin-4-yl)oxy)-3-fluorophenyl)-4-(2,6-difluorobenzyl)-2,4-dihydro-3H-1,2,4-triazol-3-one]: the IC50 is under 100 nM. For `Cc1cnc(N2CC(C)(N)C2)cc1Oc1ccc(-n2ncn(Cc3c(F)cccc3F)c2=O)cc1F` [Example 422, 2-(4-((2-(3-amino-3-methylazetidin-1-yl)-5-methylpyridin-4-yl)oxy)-3-fluorophenyl)-4-(2,6-difluorobenzyl)-2,4-dihydro-3H-1,2,4-triazol-3-one] the value was under 100 nM; for `CC1(N)CN(c2nccc(Oc3ccc(-n4ncn(Cc5c(F)cccc5F)c4=O)cc3Cl)c2F)C1` [Example 423, 2-(4-((2-(3-amino-3-methylazetidin-1-yl)-3-fluoropyridin-4-yl)oxy)-3-chlorophenyl)-4-(2,6-difluorobenzyl)-2,4-dihydro-3H-1,2,4-triazol-3-one], under 100 nM; for `CC1(N)CN(c2cc(Oc3ccc(-n4ncn(Cc5c(F)cccc5F)c4=O)cc3F)c(F)cn2)C1` [Example 424, 2-(4-((2-(3-amino-3-methylazetidin-1-yl)-5-fluoropyridin-4-yl)oxy)-3-fluorophenyl)-4-(2,6-difluorobenzyl)-2,4-dihydro-3H-1,2,4-triazol-3-one], 100 to 1000 nM.

With `C[C@H]1[C@@H](N)CN1c1cc(Oc2ccc(-n3ncn(Cc4c(F)cccc4F)c3=O)cc2F)c(Cl)cn1` [Example 425, 2-(4-((2-((2S,3S)-3-amino-2-methylazetidin-1-yl)-5-chloropyridin-4-yl)oxy)-3-fluorophenyl)-4-(2,6-difluorobenzyl)-2,4-dihydro-3H-1,2,4-triazol-3-one], the IC50 is under 100 nM. For `C[C@H]1[C@@H](N(C)C)CN1c1cc(Oc2ccc(-n3ncn(Cc4c(F)cccc4F)c3=O)cc2F)c(Cl)cn1` [Example 426, 2-(4-((5-chloro-2-((2S,3S)-3-(dimethylamino)-2-methylazetidin-1-yl)pyridin-4-yl)oxy)-3-fluorophenyl)-4-(2,6-difluorobenzyl)-2,4-dihydro-3H-1,2,4-triazol-3-one] the value was under 100 nM; for `O=c1n(-c2ccc(Oc3cccnc3)cc2)nc(Cl)n1Cc1ccccc1` [Example 427, 4-benzyl-5-chloro-2-(4-(pyridin-3-yloxy)phenyl)-2,4-dihydro-3H-1,2,4-triazol-3-one], under 100 nM; for `O=c1n(-c2ccc(Oc3ccccc3)cc2)nc2n1C(c1ccccc1)CC2` (centres unmarked) [Example 428, 2-(4-phenoxyphenyl)-5-phenyl-2,5,6,7-tetrahydro-3H-pyrrolo[2,1-c][1,2,4]triazol-3-one], under 100 nM.
